The subject of one data set is HTT. As to the kind of experiment: Splicing RT-qPCR assay, HTT mRNA canonical junction (CJ) and alternative junction (AJ). It counts as cell-based, human. As to conditions: Homo sapiens, gene panel, CJ qPCR, protocol of Example 142; read-out: HTT IC50 (decrease in CJ mRNA levels). Summed up:
(§1)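 Cells: A673 (DMEM/10% FBS) or K562 (IMDM/10% FBS). Dose: 11-pt 3-fold, top 10 uM final, ≤0.25% DMSO, 24 h, 37 °C. Readout: RT-qPCR of CJ/AJ exon junctions, ΔΔCt vs housekeeper and DMSO, RQ to % response.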
In general terms: In qPCR the cycle at which signal appears reflects the starting amount.

The test system of another data set is Target C. As to the kind of experiment: Splicing RT-qPCR panel, Target C canonical junction (CJ) mRNA. As to conditions: Homo sapiens, gene panel, CJ qPCR, protocol of Example 142; read-out: Target C IC50 (decrease in CJ mRNA levels). Type of data set: cell-based, human. Summed up: as §1
Data set [1] is described as follows: Transwell assay for membrane efflux and permeability. Particulars: dog; MDCK-BCRP or MDCKII-MDR1 transwell, test compound 1 μM, 2 hours at 37° C. It counts as in vitro ADME, Canine. The essentials:
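Transport measured over 2 h at 37 °C with compounds at 1 μM final in HBSS containing 0.5% DMSO. Monolayers of BCRP-expressing MDCK or MDR1-expressing MDCKII cells were cultured 4-8 days, then HBSS-washed and equilibrated 30 min at 37 °C before dosing.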

A value given as a limit tells only on which side of the number the result lay.

Broadly, the IC50 is the concentration that gives 50% inhibition. As a reminder, the Papp is the rate of passage across a membrane or cell layer, normalised by area and donor concentration. Lower therefore signals poor permeation. The efflux ratio is a quotient of directional permeabilities that is used to spot active efflux.

With `COc1nc(-c2ccc(O[C@@H]3C[C@H]4CC[C@@H](C3)N4)nn2)ccc1-c1cnc(C)s1` [Compound 962], the IC50 in the data set on HTT was 100 to 1000 nM. Besides, the 50% inhibitory concentration (IC50) with Target C was in the range of 1000 to 10000 nM. In addition, in data set [1], the Papp at 2 h, 1 μM was 2 to 6 ×10⁻⁶ cm/s and the efflux ratio at 2 h, 1 μM was in the range of 1.5 to 5.
Turning to `COc1nc(-c2ccc(OC3CC(C)(C)NC(C)(C)C3)nn2)cc(F)c1-c1cn[nH]c1` [Compound 965], the IC50 with HTT is below 100 nM. The IC50 in the data set on Target C was 100 to 1000 nM. In data set [1], the Papp at 2 h, 1 μM was 2 to 6 ×10⁻⁶ cm/s and the efflux ratio at 2 h, 1 μM was above 5.
The like results for `CCOc1nc(-c2ccc(OC3CC(C)(C)NC(C)(C)C3)nn2)cc(F)c1-c1cn[nH]c1` [Compound 966] were, in that order, below 100 nM, below 100 nM, 2 to 6 ×10⁻⁶ cm/s and above 5.
Regarding `CCOc1nc(-c2ccc(OC3CC(C)(C)NC(C)(C)C3)nn2)ccc1-c1cn[nH]c1` [Compound 967], in the data set with HTT, the IC50 is below 100 nM. Besides, the IC50 with Target C was in the range of 100 to 1000 nM. In addition, in data set [1], the Papp at 2 h, 1 μM lay in the range of 2 to 6 ×10⁻⁶ cm/s and the efflux ratio at 2 h, 1 μM lay within 1.5 to 5.
As to `COc1nc(-c2ccc(OC3CC4CC(F)(F)C(C3)N4)nn2)cc(F)c1-c1cn[nH]c1` (centres unmarked) [Compound 969], in the data set with HTT, the IC50 is 1000 to 10000 nM. For the same compound, the IC50 with Target C is above 10000 nM. Also, in data set [1], the apparent permeability (Papp) at 2 h, 1 μM was 2 to 6 ×10⁻⁶ cm/s and the efflux ratio at 2 h, 1 μM is above 5.

The record behind these values is patent US20240368163A1, “COMPOUNDS AND METHODS FOR MODULATING SPLICING” (REMIX THERAPEUTICS INC., priority 2021, published 2024).
